Data as given in ChEMBL document CHEMBL3817840, “Discovery of CNS Penetrant CXCR2 Antagonists for the Potential Treatment of CNS Demyelinating Disorders” (ACS Med Chem Lett, 2016).

Columns and labels:
[1] = biological target: T1, C-X-C chemokine receptor type 2 (Homo sapiens, UniProt P25025); assay: Antagonist activity at human recombinant Gal4-VP16 fused-CXCR2 assessed as inhibition of CXCL1-mediated lactamase reporter gene expression after overnight incubation
T1 sequence (P25025 whole entry): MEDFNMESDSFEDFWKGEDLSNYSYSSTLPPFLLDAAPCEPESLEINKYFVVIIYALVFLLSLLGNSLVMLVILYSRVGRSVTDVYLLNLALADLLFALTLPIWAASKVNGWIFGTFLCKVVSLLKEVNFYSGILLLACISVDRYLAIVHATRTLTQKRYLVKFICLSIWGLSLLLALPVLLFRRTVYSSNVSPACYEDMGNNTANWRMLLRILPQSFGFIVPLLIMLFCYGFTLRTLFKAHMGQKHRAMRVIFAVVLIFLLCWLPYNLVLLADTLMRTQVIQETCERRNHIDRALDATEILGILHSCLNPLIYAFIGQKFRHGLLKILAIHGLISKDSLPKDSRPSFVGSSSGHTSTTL

Brain [2] = assay: AUC (0 to 4 hrs) in C57BL/6 mouse brain at 2 mg/kg, ip by UPLC/MS/MS analysis; assay type: ADME, organism-based; design: dose 2 mg/kg, time < 4 hr, route intraperitoneal; settings: in vivo
[3] = Ratio of drug level in C57BL/6 mouse brain to blood at 2 mg/kg, ip; assay type: ADME, organism-based; settings: for Ratio: mouse, brain, BLD = below limit of detection; for Kp: C57BL/6, mouse, brain/blood
Blood = assay: (§1) AUC (0 to 4 hrs) in C57BL/6 mouse blood at 2 mg/kg, ip by UPLC/MS/MS analysis; assay type: ADME, organism-based; design: dose 2 mg/kg, time < 4 hr, route intraperitoneal; settings: mouse, in vivo, 4 h, BLD = below limit of detection
[4] = as §1; assay type: ADME, organism-based; design: dose 2 mg/kg, time < 4 hr, route intraperitoneal; settings: C57BL/6, mouse, blood
[5] = Oral bioavailability in C57BL/6 mouse at 2 mg/kg; assay type: ADME, organism-based; settings: in vivo
[6] = Clearance in C57BL/6 mouse blood at 1 mg/kg, iv; assay type: ADME, organism-based
[7] = Half life in C57BL/6 mouse at 1 mg/kg, iv; assay type: ADME, organism-based; settings: in vivo
Cytochrome P450 2C19 = Cytochrome P450 2C19 (Homo sapiens, UniProt P33261); assay: Inhibition of CYP2C19 (unknown origin); assay type: ADME
Cytochrome P450 2C9 = Cytochrome P450 2C9 (Homo sapiens, UniProt P11712)
Description: Inhibition of CYP2C9 (unknown origin)

[8] = Cmax in C57BL/6 mouse at 2 mg/kg, po; assay type: ADME, organism-based; design: dose 2 mg/kg, route oral; settings: in vivo
[9] = Fraction unbound in human plasma; assay type: ADME, cell-free
Cytochrome P450 2D6 = Cytochrome P450 2D6 (Homo sapiens, UniProt P10635); assay: Inhibition of CYP2D6 (unknown origin); assay type: ADME
Cytochrome P450 3A4 = Cytochrome P450 3A4 (Homo sapiens, UniProt P08684); assay: Inhibition of CYP3A4 (unknown origin); assay type: ADME
Mus musculus = assay: Dose normalized AUC (0 to infinity) in C57BL/6 mouse at 2 mg/kg, po; assay type: ADME, organism-based; settings: in vivo
[10] = Volume of distribution at steady state in C57BL/6 mouse at 1 mg/kg, iv; assay type: ADME, organism-based; settings: in vivo, read-out: Vdss
Cytochrome P450 1A2 = biological target: T2, Cytochrome P450 1A2 (Homo sapiens, UniProt P05177); assay: Inhibition of CYP1A2 (unknown origin); assay type: ADME
T2 sequence (P05177 whole entry): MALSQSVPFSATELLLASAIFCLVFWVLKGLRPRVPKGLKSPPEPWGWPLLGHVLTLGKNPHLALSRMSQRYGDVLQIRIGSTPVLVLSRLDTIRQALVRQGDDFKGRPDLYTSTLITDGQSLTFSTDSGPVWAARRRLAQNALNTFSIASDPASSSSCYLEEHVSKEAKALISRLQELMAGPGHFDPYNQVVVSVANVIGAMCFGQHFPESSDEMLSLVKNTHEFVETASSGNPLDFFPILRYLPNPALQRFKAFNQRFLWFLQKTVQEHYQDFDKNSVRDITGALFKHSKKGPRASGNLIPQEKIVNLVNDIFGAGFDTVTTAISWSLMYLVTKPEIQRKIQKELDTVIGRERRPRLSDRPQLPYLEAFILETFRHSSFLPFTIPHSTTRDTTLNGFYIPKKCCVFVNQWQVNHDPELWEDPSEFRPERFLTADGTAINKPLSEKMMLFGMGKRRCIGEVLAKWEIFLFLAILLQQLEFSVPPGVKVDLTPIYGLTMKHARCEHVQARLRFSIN

[11] = Stability of the compound assessed as GSH conjugate formation; assay type: physicochemical
[12] = biological target: Voltage-gated inwardly rectifying potassium channel KCNH2 (Homo sapiens, UniProt Q12809); assay: Binding affinity to human ERG
[13] = Ratio of drug level in C57BL/6 mouse brain to blood at 1.9 mg/kg, po; assay type: ADME, organism-based
[14] = AUC (0 to 4 hrs) in C57BL/6 mouse blood at 1.9 mg/kg, po by UPLC/MS/MS analysis; assay type: ADME, organism-based; design: dose 1.9 mg/kg, time < 4 hr, route oral
Brain [15] = assay: AUC (0 to 4 hrs) in C57BL/6 mouse brain at 1.9 mg/kg, po by UPLC/MS/MS analysis; assay type: ADME, organism-based; design: dose 1.9 mg/kg, time < 4 hr, route oral; settings: in vivo

Chain of Cytochrome P450 2C19 (P33261 whole entry): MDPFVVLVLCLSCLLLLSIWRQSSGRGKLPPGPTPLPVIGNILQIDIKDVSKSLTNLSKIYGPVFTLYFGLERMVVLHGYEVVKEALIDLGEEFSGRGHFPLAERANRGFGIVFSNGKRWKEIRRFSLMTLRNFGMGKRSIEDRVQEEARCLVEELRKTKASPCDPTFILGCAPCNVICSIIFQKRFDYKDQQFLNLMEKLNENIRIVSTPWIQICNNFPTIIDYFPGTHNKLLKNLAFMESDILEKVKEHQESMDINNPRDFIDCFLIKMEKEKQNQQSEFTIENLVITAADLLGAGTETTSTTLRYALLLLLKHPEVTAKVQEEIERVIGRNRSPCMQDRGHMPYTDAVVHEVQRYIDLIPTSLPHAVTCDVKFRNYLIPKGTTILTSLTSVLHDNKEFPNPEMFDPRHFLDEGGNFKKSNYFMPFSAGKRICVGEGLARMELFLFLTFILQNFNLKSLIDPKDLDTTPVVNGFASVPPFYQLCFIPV
Chain of Cytochrome P450 3A4 (P08684 whole entry): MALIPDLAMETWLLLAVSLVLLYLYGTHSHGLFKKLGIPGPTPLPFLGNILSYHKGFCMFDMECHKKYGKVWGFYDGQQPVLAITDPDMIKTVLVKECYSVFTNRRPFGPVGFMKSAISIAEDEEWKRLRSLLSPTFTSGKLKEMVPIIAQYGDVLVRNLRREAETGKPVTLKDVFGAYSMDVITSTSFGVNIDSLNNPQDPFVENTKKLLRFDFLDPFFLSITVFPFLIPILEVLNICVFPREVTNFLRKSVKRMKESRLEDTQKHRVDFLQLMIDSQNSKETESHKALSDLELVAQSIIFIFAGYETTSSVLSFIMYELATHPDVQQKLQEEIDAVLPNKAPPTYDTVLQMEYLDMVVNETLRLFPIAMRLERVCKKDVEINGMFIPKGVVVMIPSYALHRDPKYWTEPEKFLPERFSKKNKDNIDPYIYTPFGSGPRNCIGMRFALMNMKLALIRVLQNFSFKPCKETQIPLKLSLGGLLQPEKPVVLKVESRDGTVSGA
Chain of Voltage-gated inwardly rectifying potassium channel KCNH2 (Q12809 whole entry): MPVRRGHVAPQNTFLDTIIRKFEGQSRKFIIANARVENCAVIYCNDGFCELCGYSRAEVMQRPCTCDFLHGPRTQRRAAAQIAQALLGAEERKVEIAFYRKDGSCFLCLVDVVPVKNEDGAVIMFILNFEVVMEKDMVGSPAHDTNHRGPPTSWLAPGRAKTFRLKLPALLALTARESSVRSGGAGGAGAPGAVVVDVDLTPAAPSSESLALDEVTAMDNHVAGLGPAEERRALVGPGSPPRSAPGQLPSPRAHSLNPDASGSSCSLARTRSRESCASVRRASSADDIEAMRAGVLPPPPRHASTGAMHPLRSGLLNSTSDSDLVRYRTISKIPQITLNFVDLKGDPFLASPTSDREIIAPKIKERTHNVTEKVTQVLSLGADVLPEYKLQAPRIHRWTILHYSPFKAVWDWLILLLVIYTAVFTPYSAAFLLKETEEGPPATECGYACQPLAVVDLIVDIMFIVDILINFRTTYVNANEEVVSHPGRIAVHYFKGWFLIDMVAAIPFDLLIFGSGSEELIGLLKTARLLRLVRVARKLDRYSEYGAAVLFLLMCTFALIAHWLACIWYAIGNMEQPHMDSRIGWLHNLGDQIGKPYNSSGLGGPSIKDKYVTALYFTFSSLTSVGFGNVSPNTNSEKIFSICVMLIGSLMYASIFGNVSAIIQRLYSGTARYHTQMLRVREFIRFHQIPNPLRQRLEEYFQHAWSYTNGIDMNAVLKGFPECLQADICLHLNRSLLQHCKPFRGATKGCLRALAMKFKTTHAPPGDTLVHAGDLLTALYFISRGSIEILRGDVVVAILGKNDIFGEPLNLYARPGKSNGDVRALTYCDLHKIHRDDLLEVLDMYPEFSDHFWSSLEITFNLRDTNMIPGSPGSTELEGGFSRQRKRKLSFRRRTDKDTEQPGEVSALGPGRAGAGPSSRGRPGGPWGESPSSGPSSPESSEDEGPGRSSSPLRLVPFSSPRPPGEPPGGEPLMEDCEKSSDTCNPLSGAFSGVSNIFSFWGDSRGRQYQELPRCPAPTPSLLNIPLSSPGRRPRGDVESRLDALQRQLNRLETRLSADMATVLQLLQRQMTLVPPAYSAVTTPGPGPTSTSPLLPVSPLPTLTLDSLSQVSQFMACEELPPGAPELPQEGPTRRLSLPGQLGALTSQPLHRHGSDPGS
Chain of Cytochrome P450 2D6 (P10635 whole entry): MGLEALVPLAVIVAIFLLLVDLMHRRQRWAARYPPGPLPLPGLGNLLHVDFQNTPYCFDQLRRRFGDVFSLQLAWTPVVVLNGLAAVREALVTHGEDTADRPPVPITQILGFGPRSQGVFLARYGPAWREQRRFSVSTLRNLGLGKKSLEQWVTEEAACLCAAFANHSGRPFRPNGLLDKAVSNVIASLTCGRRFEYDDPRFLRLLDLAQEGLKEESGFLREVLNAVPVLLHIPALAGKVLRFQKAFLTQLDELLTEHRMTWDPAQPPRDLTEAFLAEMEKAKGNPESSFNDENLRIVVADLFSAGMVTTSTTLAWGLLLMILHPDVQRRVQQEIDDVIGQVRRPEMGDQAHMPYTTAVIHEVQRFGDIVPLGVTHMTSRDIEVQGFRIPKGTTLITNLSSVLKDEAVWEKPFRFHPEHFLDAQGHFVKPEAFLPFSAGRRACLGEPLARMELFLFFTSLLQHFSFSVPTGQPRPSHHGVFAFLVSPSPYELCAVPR
Chain of Cytochrome P450 2C9 (P11712 whole entry): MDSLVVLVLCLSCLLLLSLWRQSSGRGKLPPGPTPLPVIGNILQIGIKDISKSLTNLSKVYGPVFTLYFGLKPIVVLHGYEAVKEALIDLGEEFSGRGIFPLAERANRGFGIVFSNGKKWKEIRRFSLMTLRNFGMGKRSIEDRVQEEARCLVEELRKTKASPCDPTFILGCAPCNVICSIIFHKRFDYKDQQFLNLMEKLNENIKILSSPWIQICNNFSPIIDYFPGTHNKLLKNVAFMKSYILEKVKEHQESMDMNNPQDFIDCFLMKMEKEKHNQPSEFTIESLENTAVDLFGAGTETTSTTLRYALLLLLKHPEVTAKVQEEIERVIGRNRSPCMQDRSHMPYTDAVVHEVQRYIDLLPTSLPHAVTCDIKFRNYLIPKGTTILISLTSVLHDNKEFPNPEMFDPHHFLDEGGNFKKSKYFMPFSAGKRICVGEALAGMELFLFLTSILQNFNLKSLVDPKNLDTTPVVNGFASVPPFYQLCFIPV

Compound | IC50 [1] | AUC (Brain [2]) | Kp [3] | AUC(0-t) at 4 h [4] | also measured
O=C(Nc1ccc(Cl)c(S(=O)(=O)C2CCCCC2)c1O)Nc1cccc(F)c1Cl | 0.316 nM | – | – | – | AUC (Brain [2]; BLD = below limit of detection): BLD; Ratio [3]: BLD; AUC (Blood): BLD
O=C(Nc1ccc(Cl)c(S(=O)(=O)C2CCCC2)c1O)Nc1cccc(F)c1Cl | 0.316 nM | 1.26 ng·h/g | 0.42 | 2.98 ng·h/mL | –
O=C(Nc1ccc(Cl)c(C(=O)N2CCCC2)c1O)Nc1cccc(F)c1Cl | 1 nM | – | – | – | AUC (Brain [2]; BLD = below limit of detection): BLD; Ratio [3]: BLD; AUC (Blood): BLD
CN1CCN(S(=O)(=O)c2c(Cl)ccc(NC(=O)Nc3cccc(Cl)c3Cl)c2O)CC1 | 0.794 nM | 151 ng·h/g | 0.5 | 303 ng·h/mL | –
CN1CCN(S(=O)(=O)c2c(Cl)ccc(NC(=O)Nc3cccc(F)c3Cl)c2O)CC1 | 0.794 nM | 83 ng·h/g | 0.47 | 176 ng·h/mL | –
CC(C)S(=O)(=O)c1c(Cl)ccc(NC(=O)Nc2cccc(Cl)c2Cl)c1O | 0.631 nM | 180 ng·h/g | 0.62 | 290 ng·h/mL | –
O=C(Nc1ccc(Cl)c(S(=O)(=O)C2CCOCC2)c1O)Nc1cccc(Cl)c1Cl | 0.794 nM | 37 ng·h/g | 0.13 | 290 ng·h/mL | –
CCN1CCC(S(=O)(=O)c2c(Cl)ccc(NC(=O)Nc3cccc(F)c3Cl)c2O)CC1 | 1.26 nM | 244 ng·h/g | – | 684 ng·h/mL | bioavailability [5]: 41%; clearance [6]: 30.8 mL/min/kg; half-life [7]: 2.3 h; IC50 (Cytochrome P450 2C19): > 10000 nM; IC50 (Cytochrome P450 2C9): > 10000 nM; Cmax [8]: 125 ng/mL; Fu [9]: 0.036%; IC50 (Cytochrome P450 2D6): > 10000 nM; IC50 (Cytochrome P450 3A4): > 10000 nM; AUC/dose (Mus musculus): 212 ng·h/mL/mg/kg; Vd [10]: 2.82 L/kg; IC50 (Cytochrome P450 1A2): > 10000 nM
C[C@@H]1CN(S(=O)(=O)c2c(Cl)ccc(NC(=O)Nc3cccc(F)c3Cl)c2O)C[C@H](C)O1 | 3.98 nM | 96 ng·h/g | 0.35 | 279 ng·h/mL | –
O=C(Nc1ccc(Cl)c(S(=O)(=O)C2CCOC2)c1O)Nc1cccc(Cl)c1Cl (configuration not stated) | 0.501 nM | 59 ng·h/g | 0.21 | 284 ng·h/mL | –
CN1CCC(S(=O)(=O)c2c(Cl)ccc(NC(=O)Nc3cccc(Cl)c3Cl)c2O)CC1 | 1.58 nM | 358 ng·h/g | – | 600 ng·h/mL | bioavailability [5]: 30%; clearance [6]: 15.6 mL/min/kg; half-life [7]: 2 h; IC50 (Cytochrome P450 2C19): > 10000 nM; Cmax [8]: 132 ng/mL; Stability [11]: Stable; Fu [9]: 0.1%; IC50 (Cytochrome P450 3A4): > 10000 nM; AUC/dose (Mus musculus): 299 ng·h/mL/mg/kg; IC50 [12]: > 79400 nM; Vd [10]: 2.12 L/kg; IC50 (Cytochrome P450 1A2): > 10000 nM
CN1CC[C@H](S(=O)(=O)c2c(Cl)ccc(NC(=O)Nc3cccc(F)c3Cl)c2O)C1 | 0.501 nM | 136 ng·h/g | 0.32 | 432 ng·h/mL | –
O=C(Nc1ccc(Cl)c(S(=O)(=O)C2CCNCC2)c1O)Nc1cccc(Cl)c1Cl | 2 nM | 29.8 ng·h/g | 0.03 | 904 ng·h/mL | –
NS(=O)(=O)c1c(Cl)ccc(NC(=O)Nc2cccc(Cl)c2Cl)c1O | 2 nM | – | – | – | Kp [13]: 0.14; AUC(0-t) at 4 h [14]: 352 ng·h/mL; AUC (Brain [15]): 49 ng·h/g
O=C(Nc1ccc(Cl)c(S(=O)(=O)C2CCC2)c1O)Nc1cccc(F)c1Cl | 0.316 nM | 28.4 ng·h/g | 0.28 | 103 ng·h/mL | –
